The subject of assay [1] is 3-Hydroxy-3-Methylglutaryl Coenzyme A Reductase (HMGR). Description: HMGR Suppression Assay in digitonin-permeabilized CHO cells. It is filed as cell-based, Chinese Hamster. The note with it: for IC50: 6 hr incubation at 37°, amount to suppress HMGR activity by 50% relative to controls; for effect on measured HMGR activity: tested under these same conditions. On the procedure: The ability of the compounds of Formula I to suppress the activity of HMGR, the rate limiting enzyme of cholesterol biosynthesis, was tested as follows. Chinese Hamster Ovary (CHO) cells were divided twice weekly and were maintained in McCoy's 5A medium supplemented with 1% Cab-O-Sil delipidated Fetal Bovine Serum (FBS) (obtained from Gibco Laboratories, Chagrin Falls, Ohio). Cells were harvested during the logarithmic phase of growth and cell cultures were prepared by adding 0.5×10^6 cells to wash well in a 24 well cluster dish (obtained from Costar, Data Packaging Corp., Cambridge, Mass.) employing 1 mL of the above medium per each well. […] Control cells were treated in an identical fashion to those which received test compound, except they were incubated with the BSA and ethanol suspension only.
Specifically, the medium in each well was aspirated and the cells rinsed with a 50 mM solution of phosphate buffered saline (PBS). One mL of 30 μg/mL of digitonin in CSK buffer (prepared using 10 mM Pipes [piperazine-N,N'-bis(2-ethansulfonic)acid'], 100 mM KCl, 2.5 mM MgCl2, 300 mM sucrose, 1 mM EGTA, pH 6.8) was added to each well and incubated for 10 min at 22° to permeabilize the cells. The buffer was carefully aspirated and the wells were rinsed twice each time with 1 mL of PBS. HMGR activity was measured directly by adding 75 μL of PIB buffer (50 mM potassium phosphate, 1 mM Na2 EDTA, 10 mM dithiothreitol, pH 7.4) to each well and incubating the cells for 30 minutes at 37° as described above. […] HMG-Coenzyme A (15 DPM/pmol), pH 7.4. The assay mixture was incubated for 30 min at 37° and terminated by the addition of 70 μL of [^3 H]-mevalonic acid (35,000 DPM/assay), 0.15 mg/mL in 3 N HCl. The reaction was left to lactonize for an additional 30 min at 37° or overnight at room temperature.
Reaction products were separated by thin layer chromatography on silica gel G (obtained from Analtech, Newark, Del.) developed in an unsaturated environment with acetone:benzene (3:2, v:v). The band corresponding to mevalonolactone was identified by exposure to iodine vapor and was scraped into counting vials. The extent of conversion of starting substrate, HMG-CoA, to mevalonic acid was determined by liquid scintillation counting in Biofluor (obtained from New England Nuclear, Boston, Mass). Corrections for recovery and blank values were made for each sample. Protein determinations were made by the Bio-rad (Bio-Rad, Richmond, Cal.) dye binding assay according to the manufacturer's instruction using bovine serum albumin as standard. Cellular protein was solubilized from culture dishes by the addition of 20 μL of 16 N KOH and assayed directly for protein amount. Suppression values are expressed as the amount of compound required to suppress HMGR activity by 50% relative to that of the controls.

In assay [2] the test system is cholesterol synthesis in CHO cells. Description: De novo cholesterol synthesis: incorporation of radiolabeled acetate into cholesterol in CHO cells. It is filed as cell-based, Chinese Hamster. The note with it: for Cholesterol Synthesis (DPMs): 17 hr + 2 hr with [14C]-acetic acid, Control 38855. On the procedure:
The ability of the compounds of Formula I to decrease de novo cholesterol synthesis was tested by measuring the incorporation of radiolabeled acetate into cholesterol synthesized in CHO cells. To conduct this experiment, CHO cells were plated at 0.3×10^6 cells per 15×60 mm tissue culture dish in 5 mL of McCoy's modified medium (Gibco Laboratories) containing 1% Cab-O-Sil delipidated FBS and incubated for 48 hours at 37° in a 5% CO2, 95% air environment. Test compounds in a 2.5% suspension of BSA (fatty acid free) in ethanol were then added to the cultures such that the final ethanol and BSA concentrations were 0.5% and […], respectively. Control cultures received ethanol and BSA alone. The cultures containing test compounds were then incubated at 37° in a 5% Co, 95% air environment for 17 hr before the addition of [1,2-^14 C]-acetic acid (57 μCi/mmol); obtained from New England Nuclear, Boston, Mass.) at a concentration of 10 μCi/mL for 2 additional hr.
The cells were harvested by washing the cells twice with 5 mL of cold PBS and scraping the cells into 1 mL PBS. The cell-containing solution was then transferred to 15 mL extraction tubes and treated with 1 mL of 90% methanol (containing 15% KOH, 100 μg/mL butylated hydroxytoluene). All samples were saponified for 1 hr at 80° and the non-saponifiable lipids then extracted with petroleum ether. The petroleum ether fractions were dried under nitrogen, resuspended in ethanol, counted and analyzed by reverse phase HPLC at 45° using an Ultrashpere Octyl column (from Altex Scientific Inc., Berkeley, Calif.) with a mobile phase of acetonitrile:methanol:water (44:44:12). The amount of cholesterol synthesis is measured by the amount of radiolabeled acetate incorporated into the cholesterol peak. The percent of cholesterol synthesis in the treated culture is calculated based upon the control culture.

Assay [3] deals with T1, Lanosta-8,24-dien-3β-ol 14α-methyl demethylase (Rattus norvegicus, UniProt Q64654).
T1 construct: determined in rat depatic microsomal preparations; from tissue; host or cells: rat hepatic microsomes
T1 sequence (Q64654 1-503): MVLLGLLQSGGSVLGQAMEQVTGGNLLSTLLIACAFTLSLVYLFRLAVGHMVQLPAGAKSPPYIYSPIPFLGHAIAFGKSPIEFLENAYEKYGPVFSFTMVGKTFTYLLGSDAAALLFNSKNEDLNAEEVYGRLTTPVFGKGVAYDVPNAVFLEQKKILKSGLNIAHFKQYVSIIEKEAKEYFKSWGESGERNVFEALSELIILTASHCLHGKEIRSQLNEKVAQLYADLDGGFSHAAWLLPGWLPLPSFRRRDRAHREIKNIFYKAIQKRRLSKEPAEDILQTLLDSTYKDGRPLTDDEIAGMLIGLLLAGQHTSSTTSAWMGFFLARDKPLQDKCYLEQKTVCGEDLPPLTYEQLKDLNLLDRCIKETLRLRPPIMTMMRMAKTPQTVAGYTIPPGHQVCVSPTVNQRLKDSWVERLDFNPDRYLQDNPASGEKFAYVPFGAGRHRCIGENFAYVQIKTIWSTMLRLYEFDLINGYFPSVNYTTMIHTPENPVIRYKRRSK
In words: Lanosta-8,24-dien-3β-ol 14α-Methyl Demethylase Inhibition Assay. It is filed as biochemical. The note with it: for IC50: rat hepatic microsomal preparations, 100 μM lanost-8-en-3β-ol substrate, pH not given, test compounds 0 to 100 μM; for effect on lanosta-8,24-dien-3β-ol 14α-methyl demethylase activity: rat microsomal preparations. As for the experimental part: Lanosta-8,24-dien-3β-ol 14α-methyl demethylase activity was determined in rat depatic microsomal preparations as described in Trzaskos et al., J. Biol. Chem., 261, 16937-16942 (1986). Specifically, test compounds were added to assay mixtures as detergent suspensions with substrate employing 5 mg Triton WR-1339, 100 μM lanost-8-en-3β-ol substrate, and test compounds ranging from 0 to 100 μM. The inhibitor/substrate/detergent suspension was incubated with 2 mg microsomal protein for 5 min at 37° followed by a 10 min incubation initiated by the addition of cofactors required for the reaction. […] Inhibition values are expressed as the amount of compound required to inhibit lanosta-8,24-dien-3β-ol 14α-methyldemethylase activity by 50% relative to that of the controls.

Setting [4] is: Cricetulus griseus, 19 h, 10 μM, percent of control culture (100).

In general, IC50 refers to the concentration that inhibits the measured activity by half. As to `C=CC(O)[C@@]12CC[C@H]([C@H](C)CCCC(C)C)[C@@]1(C)CCC1=C2CC[C@H]2C(C)(C)[C@@H](O)CC[C@]12C` (single isomer, unassigned) [Compound 11a, 4,4-dimethyl-14α-(1'-hydroxy-2'-propenyl)-5α-cholest-8-en-3β-ol], in assay [1], half-maximal inhibition (IC50) was put at 60 nM. The “Cholesterol Synthesis (DPMs)” value in assay [2] (1 μM) was 360 DPMs.

In the case of `C=CC(O)[C@@]12CC[C@H]([C@H](C)CCCC(C)C)[C@@]1(C)CCC1=C2CC[C@H]2C(C)(C)[C@@H](O)CC[C@]12C` (single isomer, unassigned) [Compound 12a, 4,4-dimethyl-14α-(1'-hydroxy-2'-propenyl)-5α-cholest-8-en-3β-ol], the IC50 is 130 nM in assay [1] and 3200 nM in assay [3]. For the same molecule, the “Cholesterol Synthesis (DPMs)” value in assay [2] (1 μM) turned out to be 636 DPMs. The molecule further had an activity at 1 µM in assay [2] (Cricetulus griseus, 19 h, 1 μM, percent of control culture (100)) of 2%.

`CC(C)=CCC[C@@H](C)[C@H]1CC[C@@]2(C)C3=C(CC[C@]12C)[C@@]1(C)CC[C@H](O)C(C)(C)[C@@H]1CC3` [Compound 1, lanosta-8,24-dien-3β-ol, reference compound]: in assay [1], the “effect on measured HMGR activity” value is recorded as “without effect”. For the same molecule, the “effect on lanosta-8,24-dien-3β-ol 14α-methyl demethylase activity” value in assay [3] is recorded as “clearly served as substrates”.

Turning to `CC(C)CCC[C@@H](C)[C@H]1CC[C@@]2(C(F)F)C3=C(CC[C@]12C)[C@@]1(C)CC[C@H](O)C(C)(C)[C@@H]1CC3` [Compound 9a, 32,32-difluoro-lanost-8-en-3β-ol], the IC50 was 1300 nM in assay [1] and 16000 nM in assay [3]. Moreover, the “Cholesterol Synthesis (DPMs)” value in assay [2] (10 μM) was found to be 3615 DPMs. In assay [2] (setting [4]), the activity at 10 µM is 9%.

Take `CC(C)CCC[C@@H](C)[C@H]1CC[C@@]2(C(F)F)C3=CC[C@H]4C(C)(C)[C@@H](O)CC[C@]4(C)[C@H]3CC[C@]12C` [Compound 9b, 32,32-difluoro-lanost-7-en-3β-ol]: the values for the IC50 in assay [1] and in assay [3] were 1400 nM and 37000 nM, respectively. In addition, in assay [2] (10 μM), the “Cholesterol Synthesis (DPMs)” value was 10125 DPMs. Further, in assay [2] (setting [4]), the activity at 10 µM was 26%.

`CC(C)CCC[C@@H](C)[C@H]1CC[C@@]2(C=NO)C3=C(CC[C@]12C)[C@@]1(C)CC[C@H](O)C(C)(C)[C@@H]1CC3` [Compound 15a, lanost-8-en-32-aldoxime-3β-ol]: the IC50 in assay [1] was 40 nM; in assay [3], 1100 nM.

As to `CC(C)CCC[C@@H](C)[C@H]1CC[C@@]2(C=NO)C3=CC[C@H]4C(C)(C)[C@@H](O)CC[C@]4(C)[C@H]3CC[C@]12C` [Compound 15b, lanost-7-en-32-aldoxime-3β-ol], the results for the IC50 in assay [1] and in assay [3] were 1400 nM and 3000 nM, respectively. Also, in assay [2] (0.5 μM), the “Cholesterol Synthesis (DPMs)” value is 1534 DPMs. The molecule also registered an activity at 0.5 µM in assay [2] (Cricetulus griseus, 19 h, 0.5 μM, percent of control culture (100)) of 4%.

In the case of `CC(C)CCC[C@@H](C)[C@H]1CC[C@@]2(C#N)C3=C(CC[C@]12C)[C@@]1(C)CC[C@H](O)C(C)(C)[C@@H]1CC3` [Compound 17a, 14α-cyano-4,4-dimethyl-5α-cholest-8-en-3β-ol], the results for the IC50 in assay [1] and in assay [3] were 1400 nM and 11000 nM, respectively.

As to `CC(C)CCC[C@@H](C)[C@H]1C[C@H](F)[C@@]2(C)C3=CC[C@H]4C(C)(C)[C@@H](O)CC[C@]4(C)[C@H]3CC[C@]12C` [Compound 26b, 15α-fluoro-lanost-7-en-3β-ol], the IC50 in assay [1] was 1000 nM; in assay [3] it was above 100000 nM. In addition, the “Cholesterol Synthesis (DPMs)” value in assay [2] (10 μM) is given as 12279 DPMs. Further, the activity at 10 µM in assay [2] (setting [4]) came out at 32%.

In the case of `CC(C)CCC[C@@H](C)[C@H]1C[C@H](F)[C@@]2(C)C3=CC[C@H]4C[C@@H](O)CC[C@]4(C)[C@H]3CC[C@]12C` [Compound 27b, 15α-fluoro-14α-methyl-5α-cholest-7-en-3β-ol], the 50% inhibitory concentration (IC50) was 500 nM in assay [1] and above 100000 nM in assay [3].

Regarding `CC(C)CCC[C@@H](C)[C@H]1C[C@H](O)[C@@]2(O)C3=C(CC[C@]12C)[C@@]1(C)CC[C@H](O)C[C@@H]1CC3` [Compound 35a, 5α-cholest-8-en-3β,14α,15α-triol], the IC50 in assay [1] is 400 nM; in assay [3] it was above 100000 nM.

With `CC(C)CCC[C@@H](C)[C@H]1CC[C@H]2[C@@H]3CC=C4C[C@@H](O)CC[C@]4(C)[C@H]3CC[C@]12C` [cholesterol], in assay [1], the “effect on measured HMGR activity” value is recorded as “without effect”. Besides, the “effect on lanosta-8,24-dien-3β-ol 14α-methyl demethylase activity” value in assay [3] is listed as “without effect”.

`CC(C)CCC[C@@H](C)[C@H]1CC[C@@]2(C)C3=C(CC[C@]12C)[C@@]1(C)CC[C@H](O)C(C)(C)[C@@H]1CC3` [lanost-8-en-3β-ol, reference compound]: the “effect on measured HMGR activity” value in assay [1] is “without effect”. Also, in assay [3], the “effect on lanosta-8,24-dien-3β-ol 14α-methyl demethylase activity” value was “clearly served as substrates”.

(Values after US5034548A, “Steroid derivatives useful as hypocholesterolemics” (E. I. Du Pont de Nemours and Company, priority 1990, dated 1991).)
